Experimental data as given in patent US20240317748A1, “CARBONYL SUBSTITUTED DIAZASPIRO COMPOUNDS AND ITS USE” (BIONOVA PHARMACEUTICALS (SHANGHAI) LIMITED, priority 2021, published 2024).
Where two headings read alike, the source gives them in different places.

Experiments:
[1] = molecular target: T1, Menin-MLL1 (Homo sapiens, UniProt O00255); assay: Menin-MLL1 inhibition assay (fluorescence polarization, Menin protein + FAM-MLL peptide); type: binding; conditions: Menin (2-610) isoform 2, FAM-labelled MLL peptide, mP readout; read-out: Biochemical assay Menin-MLL1 IC50
T1 construct: Menin (2-610) isform2; purchased ChemPartner 2020111101
T1 sequence (O00255 2-610): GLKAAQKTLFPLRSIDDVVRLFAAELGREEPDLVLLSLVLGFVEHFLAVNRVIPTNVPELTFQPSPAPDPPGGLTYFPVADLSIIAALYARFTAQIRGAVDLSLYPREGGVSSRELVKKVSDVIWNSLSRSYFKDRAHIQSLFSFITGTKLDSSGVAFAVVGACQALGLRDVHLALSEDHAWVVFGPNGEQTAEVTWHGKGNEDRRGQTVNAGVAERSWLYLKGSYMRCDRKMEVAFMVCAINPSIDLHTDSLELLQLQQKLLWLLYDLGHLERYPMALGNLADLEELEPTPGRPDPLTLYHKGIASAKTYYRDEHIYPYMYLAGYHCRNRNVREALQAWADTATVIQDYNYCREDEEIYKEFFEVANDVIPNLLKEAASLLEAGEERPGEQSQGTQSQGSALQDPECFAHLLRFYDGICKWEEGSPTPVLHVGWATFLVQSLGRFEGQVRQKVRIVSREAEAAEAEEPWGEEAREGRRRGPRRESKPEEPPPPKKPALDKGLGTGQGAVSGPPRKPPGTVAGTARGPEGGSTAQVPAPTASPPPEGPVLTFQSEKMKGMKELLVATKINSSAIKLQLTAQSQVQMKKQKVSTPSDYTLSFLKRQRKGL

[2] = test system: MV-4-11 cells; assay: Cell proliferation assay (CellTiter-Glo), MV-4-11; type: cell-based, human; conditions: MV-4-11 (MLL-AF4), 4 days incubation, read-out: Cell antiproliferation assay MV-4-11 IC50
In short: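 Antiproliferative activity by CellTiter-Glo luminescence; MV4-11 (MLL-AF4) in IMDM/10% FBS, 4 days; MOLM13 (MLL-AF9) in RPMI1640/20% FBS, 12 days; OCI-AML3 (NPM1c) in RPMI1640/20% FBS, 5 days; HL-60 (MLL wild-type control) in IMDM/20% FBS, 4 days. Compounds 4-fold serial from 2 mM stock, 200-fold final dilution; 37 °C, 5% CO2.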

[3] = test system: HL-60 cells; assay: Cell proliferation assay (CellTiter-Glo), HL-60 control line; type: cell-based, human; conditions: 4 days incubation; for IC50: HL-60 control line (MLL wildtype), read-out: Cell antiproliferation assay HL-60 IC50; for inhibition at 10 µM: read-out: HL-60 (Pct of inhibition at 10 μM)
Experimental: (§1) The antiproliferative activity of test compounds was assessed in human leukemia cell lines. The cell line MV4-11, MOLM13 and OCI-AML3, which expresses the MLL fusion protein MLL-AF4, MLL-AF9 and carry the NPM1c gene mutation, respectively, were tested. HL-60 was used as a control cell line containing two MLL wildtype alleles in order to exclude compounds that display general cytotoxic effect. MV4-11 cells were cultured in IMDM supplemented with 10% FBS, MOLM13 and OCI-AML3 cells were cultured in RPMI1640 supplemented with 20% FBS, and HL-60 cells were cultured in IMDM supplemented with 20% FBS. Corresponding cells (MV4-11, MOLM13, OCI-AML3 or HL-60 cell line) were seeded in 100 uL medium per well in 96-well plate (white wall with clear bottom, tissue culture treated, Corning, Cat. No. CLS3903; Lot.No. 30419025). Plates were placed in the CO2 incubator overnight. Compounds solution (2 mM starting, 4-fold serial dilution) were prepared and added to the wells containing 100 μL of the culture medium with HPD300 according to the plate map and centrifuge at 1000 rpm for 1 minutes (200-fold dilution totally). MV4-11, MOLM13, OCI-AML3 and HL-60 cells were incubated with the compounds for 4, 12, 5 and 4 days, respectively, under 5% CO2 at 37° C., respectively. 100 μL of CellTiter-Glo reagent (Promega, Cat. No. G7573, Lot. No. 0000416710) was added to the assay plate by Multidrop Combi instrument, contents were mixed for 10 minutes on an orbital shaker to induce cell lysis. After incubation at room temperature for 10 mins, clear bottom with white back seal was pasted and luminescence with Envision was read.

[4] = Liver microsome stability study; type: in vitro ADME; conditions: human liver microsomes 0.5 mg/mL, 1 μM compound, NADPH, 37° C.; for half-life at 1 μM: read-out: Human liver microsome T1/2
Experimental: Studies were carried out in liver microsomes (Corning, 0.5 mg/mL). Stock solutions were prepared at 10 mM in DMSO for the test compounds. Aliquots of the stock solutions were diluted to 0.5 mM with acetonitrile, and then further diluted upon the addition of liver microsomes/buffer to 1.5 μM. An aliquot of 30 μL of 1.5 μM solutions was mixed with 15 μL of 6 mM NADPH and the final concentration of NADPH was 2 mM, which had been pre-warmed to 37° C. Test compounds and Ketanserin final concentrations were 1 μM. The plates were kept in a 37° C. water bath for the duration of the experiment. At each time point (0, 5, 15, 30, 45 minutes), 135 μL of acetonitrile was added into corresponding wells. After the final time point was quenched by acetonitrile, the assay plates were shaken at the vibrator (IKA, MTS 2/4) for 10 min (600 rpm/min) and then centrifuged at 5,594 g for 15 min (Thermo Multifuge×3R). Aliquots of the supernatant were taken, diluted 1:1 into distilled water, and analyzed by LC-MS/MS. The peak area response ratio to internal standard (PARR) of the compounds at 5, 15, 30, 45 minutes was compared to the PARR at time 0 to determine the percent of test compound remaining at each time point. Half-lives were calculated using Excel software, fitting to a single-phase exponential decay equation.

[5] = molecular target: T2, hERG potassium channel (Homo sapiens, UniProt Q12809); assay: hERG inhibition study (Qpatch, CHO-hERG cells); type: cell-based; conditions: highest test concentration 40 μM
T2 construct: expressed in transfected cells; host or cells: CHO-hERG cells
T2 sequence (Q12809 whole entry): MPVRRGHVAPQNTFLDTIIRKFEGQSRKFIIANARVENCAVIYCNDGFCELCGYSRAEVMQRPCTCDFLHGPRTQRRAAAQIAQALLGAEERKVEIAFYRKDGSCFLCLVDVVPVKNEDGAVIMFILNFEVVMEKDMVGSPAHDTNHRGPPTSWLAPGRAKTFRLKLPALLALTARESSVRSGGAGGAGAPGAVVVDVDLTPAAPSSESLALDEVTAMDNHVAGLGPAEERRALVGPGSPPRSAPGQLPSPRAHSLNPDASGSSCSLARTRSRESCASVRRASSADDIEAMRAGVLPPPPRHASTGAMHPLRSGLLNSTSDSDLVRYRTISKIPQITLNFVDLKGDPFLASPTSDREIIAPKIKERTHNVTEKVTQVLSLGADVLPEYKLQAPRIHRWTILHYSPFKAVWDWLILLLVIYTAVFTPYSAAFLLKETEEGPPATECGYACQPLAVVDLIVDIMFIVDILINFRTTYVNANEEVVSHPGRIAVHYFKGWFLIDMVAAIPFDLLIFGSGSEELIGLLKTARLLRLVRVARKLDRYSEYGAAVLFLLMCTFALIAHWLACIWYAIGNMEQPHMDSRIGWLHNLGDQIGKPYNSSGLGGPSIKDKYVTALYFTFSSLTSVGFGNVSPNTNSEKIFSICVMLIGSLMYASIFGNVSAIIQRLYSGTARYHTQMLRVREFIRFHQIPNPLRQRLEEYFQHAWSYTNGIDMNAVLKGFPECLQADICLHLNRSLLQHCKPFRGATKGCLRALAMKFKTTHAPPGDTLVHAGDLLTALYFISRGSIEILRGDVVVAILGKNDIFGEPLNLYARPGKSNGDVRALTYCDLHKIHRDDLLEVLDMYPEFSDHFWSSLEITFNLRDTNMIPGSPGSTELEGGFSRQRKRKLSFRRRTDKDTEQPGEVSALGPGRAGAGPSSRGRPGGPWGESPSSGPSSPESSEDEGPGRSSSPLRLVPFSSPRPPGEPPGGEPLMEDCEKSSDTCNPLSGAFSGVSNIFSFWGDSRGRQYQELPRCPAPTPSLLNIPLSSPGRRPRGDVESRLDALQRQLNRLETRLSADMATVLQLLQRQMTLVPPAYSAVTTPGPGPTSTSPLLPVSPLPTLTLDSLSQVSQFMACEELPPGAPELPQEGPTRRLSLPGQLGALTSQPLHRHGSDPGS
Experimental: The inhibition effects of the test compounds on hERG were carried out in CHO-hERG cells (cell density: 21.5×10˜6/mL). 10 μL compound mother liquor was added to 20 μL DMSO solution, and then continuously diluted to 6 concentrations by 3-fold. The compound solution (4 uL) of six different concentrations were added to the extracellular solution (996 uL) and diluted to the final concentration to be tested (250-fold dilution totally). The highest test concentration was 40.00 μM, followed by […], 13.3, 4.4, 1.48, 0.49 and 0.16 μM. […] The high impedance sealing of single cell and the formation of whole cell model were all completed automatically by Qpatch instrument.

[6] = test system: OCI-AML3 cells; assay: Cell proliferation assay (CellTiter-Glo), OCI-AML3; type: cell-based, human; conditions: OCI-AML3 (NPM1c mutation), 5 days incubation, read-out: Cell antiproliferation assay OCI-AML3 IC50
Experimental: as §1

[7] = test system: MOLM13 cells; assay: Cell proliferation assay (CellTiter-Glo), MOLM13; type: cell-based, human; conditions: MOLM13 (MLL-AF9), 12 days incubation, read-out: Cell antiproliferation assay MOLM13 IC50
Experimental: as §1

[8] = Homo sapiens, 96 h, HL-60 control line, 10 μM

Row | SMILES | IC50 [1] | IC50 ([2]; Homo sapiens, MV4-11, 96 h) | IC50 ([3]; Homo sapiens, 96 h) | inhibition at 10 µM [3, 8] | half-life at 1 μM [4] | IC50 [5] | IC50 ([6]; Homo sapiens, OCI-AML-3, 120 h) | IC50 ([7]; Homo sapiens, MOLM-13, 288 h) | IC50 [2] | IC50 [6] | IC50 [7] | IC50 [3] | HL-60 (Pct of inhibition at 10 μM) ([3]; HL-60 control line, 10 μM) | Human liver microsome T1/2 [4]
1 | C[C@H]1CCN[C@@H]1C(=O)N1CCC2(CC1)CN(c1ncnnc1Oc1ccc(F)cc1-c1cncnc1C1CC1)C2 [Example 77] | 3.4 nM | 17.3 nM | > 10 µM | 17.5% | 81 min | > 40 µM | – | – | – | – | – | – | – | –
2 | CCN(C(=O)c1cc(F)ccc1Oc1nncnc1N1CC2(CCN(C(=O)[C@@H]3C[C@@H](C)CN3)CC2)C1)C(C)C [Example 60] | 4.5 nM | 40.1 nM | > 10 µM | -8.4% | 119 min | > 40 µM | – | – | – | – | – | – | – | –
3 | CCN(C(=O)c1cc(F)ccc1Oc1nncnc1N1CC2(CCN(C(=O)[C@H]3NCC[C@@H]3C)CC2)C1)C(C)C [Example 57] | 5.3 nM | 13 nM | > 10 µM | -16.4% | 105 min | > 40 µM | 144 nM | 57.8 nM | – | – | – | – | – | –
4 | CCN(C(=O)c1cc(F)ccc1Oc1nncnc1N1CC2(CCN(C(=O)[C@H]3NC[C@@H]4C[C@@H]43)CC2)C1)C(C)C [Example 55] | 2.3 nM | 14.2 nM | > 10 µM | -5% | 159 min | > 40 µM | 186 nM | 61.9 nM | – | – | – | – | – | –
5 | CCN(C(=O)c1cc(F)ccc1Oc1cncnc1N1CC2(CCN(C[C@H]3CC[C@H](NS(=O)(=O)CC)CC3)CC2)C1)C(C)C [SNDX-5613, reference compound] | 3.4 nM | – | – | – | – | 9.6 µM | – | – | 8 nM | 74.7 nM | 21.6 nM | 7.97 µM | 98.9% | 12 min
6 | CCN(C(=O)c1cc(F)ccc1Oc1nncnc1N1CC2(CCN(C(=O)[C@H]3NC[C@H]4[C@@H]3C4(C)C)CC2)C1)C(C)C (stereo in doubt) [Example 68] | 4.1 nM | 13.8 nM | > 10 µM | 14.1% | – | > 40 µM | 68.3 nM | 46.1 nM | – | – | – | – | – | –
